Laboratory results: patent US6465429B1, “Antimicrobial cationic peptides” (priority 1995, dated 2002)

Experiments:
Red Blood Cells = assay: Red Blood Cell lysis; assay type: cell-based
E. coli ML 35 = assay: Inner membrane permeabilization (β-galactosidase, ONPG); assay type: cell-based
Description: Inner membrane permeability was determined by measurement in E. coli ML 35 of β-galactosidase activity using ONPG as a substrate. Normally ONPG cannot pass across the cytoplasmic membrane to permit hydrolysis by the cytoplasmic enzyme β-galactosidase. However, cationic peptides, by permeabilizing the inner membrane, unmasks this enzyme leading to color development as ONP is released. […] Addition of citrate increased the lag time before the peptides were able to permeabilize the membranes. When the experiments were executed in cation adjusted media (CAMHB), the lag time was increased up to 30 minutes.

[1] = Dansyl polymyxin displacement assay; assay type: binding; settings: Dansyl polymyxin displacement from LPS
Description: In addition, the peptides of SEQ ID NO: 5-8 also bound effectively to LPS with high affinity based on Dansyl polymyxin displacement assays (Table 5).

[2] = α helical content by CD spectra; assay type: physicochemical
Description: The α helical content of the peptides were measured in buffer, liposomes and 20% Hexafluoroisopropanol (HFPIP). The liposomes constituted of POPC alone or POPC PC and 30% POPG (Table 7).

P. aeruginosa = assay: microbe, parasite or virus in culture; settings: Pseudomonas aeruginosa, agent alone
Description: (§1) FICs are performed by checkerboard titrations of peptides in one dimension of a microtiter plate, and of antibiotics in the other dimension, for example. The FIC is calculated by looking at the impact of one antibiotic on the MIC of the other and vice versa. […] Preferably, an FIC of less than 0.5 is obtained for synergism. As used herein, FIC can be determined as follows: [formula]
(§2) Synergism is identified as an FIC of about ≦0.5.

X. maltophila = assay: Synergy of peptide and antibiotic, MIC and FIC (checkerboard); assay type: cell-based; settings: agent alone
Description: as §1, §2

A. calcoaceticus = assay: as above; assay type: cell-based; settings: Acinetobacter calcoaceticus, agent alone
Description: as §1, §2

E. cloacae = assay: as above; assay type: cell-based; settings: Enterobacter cloacae, agent alone
Description: as §1, §2

H-KWKSFIKKLTSAAKKVVTTAKPLISS-OH [MBI 26]
RBC Lysis (Red Blood Cells): >55 µg/mL
effect of 5 mM Mg++ on inner membrane permeabilization (E. coli ML 35; 4 ug peptide, +5 mM Mg): large inhibitory effect
effect of 100 mM NaCl on inner membrane permeabilization (E. coli ML 35; 4 ug peptide, +100 mM NaCl): little effect

CC[C@H](C)[C@H](NC(=O)[C@H](CC(C)C)NC(=O)[C@H](C)NC(=O)[C@@H]1CCCN1C(=O)[C@H](CC(C)C)NC(=O)CNC(=O)[C@@H](NC(=O)[C@@H](NC(=O)[C@H](CC(C)C)NC(=O)[C@@H](NC(=O)[C@H](CCCCN)NC(=O)[C@H](CCCCN)NC(=O)[C@@H](NC(=O)[C@H](C)NC(=O)[C@@H](NC(=O)[C@@H](NC(=O)[C@H](CC(C)C)NC(=O)[C@H](CCCCN)NC(=O)[C@H](CCCCN)NC(=O)[C@@H](NC(=O)[C@H](Cc1ccccc1)NC(=O)[C@H](CCC(=O)O)NC(=O)[C@H](CCCCN)NC(=O)[C@H](Cc1c[nH]c2ccccc12)NC(=O)[C@@H](N)CCCCN)[C@@H](C)CC)[C@@H](C)O)[C@@H](C)O)C(C)C)C(C)C)[C@@H](C)O)[C@@H](C)O)C(=O)N[C@@H](CO)C(=O)O [compound 492]
Imax [1]: 48%
% α helicity ([2]; 20% HFIP): 43%
% α helicity ([2]; Buffer): 0%
% α helicity ([2]; POPC Liposomes): 42%
% α helicity ([2]; POPC/POPG Liposomes): 19%
RBC Lysis (Red Blood Cells): >55 µg/mL
Lag Time (E. coli ML 35; inner membrane permeabilization, E. coli ML 35): 68 s
Rate of Hydrolysis (E. coli ML 35; inner membrane permeabilization, E. coli ML 35, ONPG): 0.23 ΔAU min^−1

CC(C)(O/N=C(\C(=O)N[C@@H]1C(=O)N2C(C(=O)[O-])=C(C[n+]3ccccc3)CS[C@H]12)c1csc(N)n1)C(=O)O [Ceftazidime]
MIC (P. aeruginosa; P. aeruginosa isolate 23, strain ATCC 27853): 32 µg/mL
MIC (P. aeruginosa; P. aeruginosa isolate 24, strain 34): 32 µg/mL
MIC (P. aeruginosa; P. aeruginosa isolate 25, strain 923-1): 4 µg/mL
MIC (P. aeruginosa; P. aeruginosa isolate 26, strain 3101): 8 µg/mL
MIC (P. aeruginosa; P. aeruginosa isolate 27, strain 14644): 128 µg/mL
MIC (P. aeruginosa; P. aeruginosa isolate 28, strain 15036): 2 µg/mL
MIC (P. aeruginosa; P. aeruginosa isolate 29, strain 15545): 8 µg/mL
MIC (P. aeruginosa; P. aeruginosa isolate 30, strain B3999-1): 16 µg/mL
MIC (P. aeruginosa; P. aeruginosa isolate 33, strain W5483-2): 8 µg/mL
MIC (X. maltophila; X. maltophila isolate 34, strain ATCC 13637): 64 µg/mL
MIC (X. maltophila; X. maltophila isolate 35, strain 6): 64 µg/mL
MIC (X. maltophila; X. maltophila isolate 36, strain 16): 32 µg/mL
MIC (X. maltophila; X. maltophila isolate 37, strain 3095): 512 µg/mL
MIC (X. maltophila; X. maltophila isolate 39, strain B3110.1): 64 µg/mL
MIC (X. maltophila; X. maltophila isolate 40, strain R1302-1): 16 µg/mL
MIC (X. maltophila; X. maltophila isolate 41, strain R4230): 4 µg/mL
MIC (X. maltophila; X. maltophila isolate 42, strain TF29-1): 4 µg/mL
MIC (X. maltophila; X. maltophila isolate 43, strain TF29-2): 4 µg/mL
MIC (X. maltophila; X. maltophila isolate 44, strain W6896-2): 64 µg/mL
MIC (A. calcoaceticus; A. calcoaceticus isolate 1, strain ATCC 23055): 2 µg/mL
MIC (A. calcoaceticus; A. calcoaceticus isolate 4, strain 28): 16 µg/mL
MIC (A. calcoaceticus; A. calcoaceticus isolate 5, strain 8220): 16 µg/mL
MIC (A. calcoaceticus; A. calcoaceticus isolate 6, strain 8221): 8 µg/mL
MIC (A. calcoaceticus; A. calcoaceticus isolate 7, strain 8222): 16 µg/mL
MIC (A. calcoaceticus; A. calcoaceticus isolate 8, strain 8223): 16 µg/mL
MIC (A. calcoaceticus; A. calcoaceticus isolate 9, strain 8224): 64 µg/mL
MIC (A. calcoaceticus; A. calcoaceticus isolate 2, strain 23): 128 µg/mL
MIC (E. cloacae; E. cloacae isolate 12, strain ATCC 13047): 4 µg/mL
MIC (E. cloacae; E. cloacae isolate 13, strain 37-1): 2 µg/mL
MIC (E. cloacae; E. cloacae isolate 14, strain 938-2): 2 µg/mL
MIC (E. cloacae; E. cloacae isolate 15, strain B5546): 2 µg/mL
MIC (E. cloacae; E. cloacae isolate 16, strain R4148): 512 µg/mL
MIC (E. cloacae; E. cloacae isolate 17, strain R4148-2): 512 µg/mL
MIC (E. cloacae; E. cloacae isolate 18, strain 3077): 2 µg/mL
MIC (E. cloacae; E. cloacae isolate 19, strain 3356): 128 µg/mL
MIC (E. cloacae; E. cloacae isolate 20, strain 14269): 512 µg/mL
MIC (E. cloacae; E. cloacae isolate 21, strain 14661): 512 µg/mL
MIC (E. cloacae; E. cloacae isolate 22, strain 18801): 2 µg/mL
